Data: US20240309322A1, “[…], METHOD FOR MAN[…], AND MA[…] AND MICROGLIA” (KEIO UNIVERSITY, priority 2021, published 2024)

Test system: SPI1 gene
Test: qRT-PCR of SPI1 gene expression on adding doxycycline (PU protocol)
Format: cell-based, human
Description: The expression level at the transcription level can be evaluated through, for example, quantitative reverse transcription PCR (qRT-PCR) using one obtained by reverse-transcribing mRNA prepared from target cells as a template.
In the PU protocol, doxycycline (1 μg/mL) was added to the culture liquid from day 6 to day 18 from the start of culture.
By adding doxycycline, the expression level of the SPI1 gene evaluated through qRT-PCR increased by at least about 50 times compared to a case without doxycycline.

SMILES: C[C@H]1c2cccc(O)c2C(=O)C2=C(O)[C@]3(O)C(=O)C(C(N)=O)=C(O)[C@@H](N(C)C)[C@@H]3[C@@H](O)[C@@H]21 [doxycycline]
- expression level of the SPI1 gene evaluated through qRT-PCR, increase compared to a case without doxycycline (doxycycline 1 μg/mL in culture liquid from day 6 to day 18, SPI1-introduced hiPSC-derived cells): at least 50 times
- expression level of the SPI1 gene with a primer set that selectively amplifies endogenous SPI1 gene (regardless of the presence or absence of doxycycline, endogenous SPI1 only): 1-2 times
